Key:
Progesterone receptor = target: T1, Progesterone receptor (Homo sapiens, UniProt P06401)
T1 sequence (P06401 whole entry): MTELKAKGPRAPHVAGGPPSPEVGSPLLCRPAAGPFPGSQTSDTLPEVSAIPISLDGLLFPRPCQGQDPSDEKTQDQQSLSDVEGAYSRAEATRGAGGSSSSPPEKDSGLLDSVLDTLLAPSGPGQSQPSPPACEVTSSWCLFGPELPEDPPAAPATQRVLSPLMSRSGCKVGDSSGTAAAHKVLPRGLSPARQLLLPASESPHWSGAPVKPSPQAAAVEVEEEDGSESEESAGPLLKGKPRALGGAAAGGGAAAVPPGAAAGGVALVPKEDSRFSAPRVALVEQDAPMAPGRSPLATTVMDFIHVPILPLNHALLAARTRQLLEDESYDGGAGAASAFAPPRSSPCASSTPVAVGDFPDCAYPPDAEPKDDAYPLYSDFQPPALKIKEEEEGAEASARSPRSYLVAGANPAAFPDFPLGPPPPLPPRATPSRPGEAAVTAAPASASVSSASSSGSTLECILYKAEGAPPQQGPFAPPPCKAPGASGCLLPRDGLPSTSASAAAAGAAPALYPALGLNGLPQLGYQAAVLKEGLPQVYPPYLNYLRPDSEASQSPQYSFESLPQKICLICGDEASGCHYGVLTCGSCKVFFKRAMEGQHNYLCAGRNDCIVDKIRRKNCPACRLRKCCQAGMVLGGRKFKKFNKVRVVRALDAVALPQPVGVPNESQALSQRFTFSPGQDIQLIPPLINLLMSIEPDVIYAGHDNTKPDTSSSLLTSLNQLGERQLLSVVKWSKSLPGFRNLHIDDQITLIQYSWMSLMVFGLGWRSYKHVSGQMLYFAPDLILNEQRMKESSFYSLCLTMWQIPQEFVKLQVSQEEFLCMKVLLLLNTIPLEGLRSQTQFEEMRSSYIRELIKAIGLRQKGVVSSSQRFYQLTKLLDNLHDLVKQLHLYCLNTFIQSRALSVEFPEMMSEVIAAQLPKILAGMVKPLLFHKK

[1] = target: T2, 5-hydroxytryptamine receptor 1A (Homo sapiens, UniProt P08908)
T2 sequence (P08908 whole entry): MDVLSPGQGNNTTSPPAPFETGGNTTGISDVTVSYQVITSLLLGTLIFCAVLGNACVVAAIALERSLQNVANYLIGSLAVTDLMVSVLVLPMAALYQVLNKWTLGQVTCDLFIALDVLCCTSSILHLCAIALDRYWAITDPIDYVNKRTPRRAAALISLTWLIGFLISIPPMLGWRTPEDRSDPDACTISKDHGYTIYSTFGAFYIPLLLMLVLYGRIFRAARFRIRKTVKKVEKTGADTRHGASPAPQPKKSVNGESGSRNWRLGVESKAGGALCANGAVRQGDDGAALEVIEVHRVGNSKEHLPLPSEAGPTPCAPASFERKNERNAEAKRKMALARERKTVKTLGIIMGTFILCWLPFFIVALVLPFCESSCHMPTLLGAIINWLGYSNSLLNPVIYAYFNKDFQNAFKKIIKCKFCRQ

[2] = target: T3, Alpha-1A adrenergic receptor (Homo sapiens, UniProt P35348); assay type: functional, cell-based
T3 sequence (P35348 whole entry): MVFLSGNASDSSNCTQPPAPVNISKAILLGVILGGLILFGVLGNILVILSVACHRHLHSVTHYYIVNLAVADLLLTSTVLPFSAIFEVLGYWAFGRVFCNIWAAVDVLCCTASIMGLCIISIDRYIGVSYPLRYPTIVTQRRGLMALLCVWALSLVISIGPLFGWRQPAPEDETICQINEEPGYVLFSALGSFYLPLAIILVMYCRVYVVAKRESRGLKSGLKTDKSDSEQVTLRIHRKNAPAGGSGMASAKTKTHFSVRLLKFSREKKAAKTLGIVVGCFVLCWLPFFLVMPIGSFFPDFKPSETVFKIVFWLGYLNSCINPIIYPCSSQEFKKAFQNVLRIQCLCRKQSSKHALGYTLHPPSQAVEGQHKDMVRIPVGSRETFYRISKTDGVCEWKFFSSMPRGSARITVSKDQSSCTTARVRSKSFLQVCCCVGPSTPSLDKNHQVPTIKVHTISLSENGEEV

[3] = target: Sodium-dependent noradrenaline transporter (Homo sapiens, UniProt P23975)
[4] = target: T4, Amine oxidase [flavin-containing] A (Homo sapiens, UniProt P21397); assay type: functional
T4 sequence (P21397 whole entry): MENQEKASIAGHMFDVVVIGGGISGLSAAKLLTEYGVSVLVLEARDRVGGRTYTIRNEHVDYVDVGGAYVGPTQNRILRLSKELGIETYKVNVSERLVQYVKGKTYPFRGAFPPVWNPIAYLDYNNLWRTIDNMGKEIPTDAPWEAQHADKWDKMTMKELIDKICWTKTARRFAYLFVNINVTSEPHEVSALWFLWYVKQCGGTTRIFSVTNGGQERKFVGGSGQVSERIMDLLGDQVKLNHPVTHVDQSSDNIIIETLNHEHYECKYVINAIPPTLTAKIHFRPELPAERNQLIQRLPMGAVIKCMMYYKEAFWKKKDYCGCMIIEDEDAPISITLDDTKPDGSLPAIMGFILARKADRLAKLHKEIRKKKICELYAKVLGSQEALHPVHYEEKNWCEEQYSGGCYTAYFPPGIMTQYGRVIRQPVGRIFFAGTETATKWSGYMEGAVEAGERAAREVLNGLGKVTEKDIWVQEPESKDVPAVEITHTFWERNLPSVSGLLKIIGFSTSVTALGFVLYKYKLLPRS

Acetylcholinesterase = Acetylcholinesterase (Homo sapiens, UniProt P22303); assay type: functional
[5] = target: 3',5'-cyclic-AMP phosphodiesterase 4A (Homo sapiens, UniProt P27815); assay type: functional
[6] = target: Sodium-dependent dopamine transporter (Homo sapiens, UniProt Q01959)
Further: assay procedure not described here.

Chain of Sodium-dependent dopamine transporter (Q01959 whole entry): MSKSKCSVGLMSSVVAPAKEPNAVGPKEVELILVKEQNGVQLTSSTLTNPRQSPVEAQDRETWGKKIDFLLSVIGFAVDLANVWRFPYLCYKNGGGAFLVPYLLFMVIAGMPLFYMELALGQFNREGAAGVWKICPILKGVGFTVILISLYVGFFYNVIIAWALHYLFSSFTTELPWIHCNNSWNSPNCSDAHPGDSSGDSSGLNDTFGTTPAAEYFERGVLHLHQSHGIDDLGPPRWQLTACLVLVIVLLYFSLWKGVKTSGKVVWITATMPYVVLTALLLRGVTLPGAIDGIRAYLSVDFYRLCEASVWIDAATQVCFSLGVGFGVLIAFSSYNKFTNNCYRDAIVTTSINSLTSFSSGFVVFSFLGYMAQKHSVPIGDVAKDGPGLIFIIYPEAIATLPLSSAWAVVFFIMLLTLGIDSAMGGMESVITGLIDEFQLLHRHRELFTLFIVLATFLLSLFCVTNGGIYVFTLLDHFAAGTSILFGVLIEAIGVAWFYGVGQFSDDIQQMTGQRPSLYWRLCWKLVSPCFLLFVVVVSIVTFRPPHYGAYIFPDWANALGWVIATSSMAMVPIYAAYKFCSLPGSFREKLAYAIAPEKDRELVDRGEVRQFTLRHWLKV
Chain of Acetylcholinesterase (P22303 whole entry): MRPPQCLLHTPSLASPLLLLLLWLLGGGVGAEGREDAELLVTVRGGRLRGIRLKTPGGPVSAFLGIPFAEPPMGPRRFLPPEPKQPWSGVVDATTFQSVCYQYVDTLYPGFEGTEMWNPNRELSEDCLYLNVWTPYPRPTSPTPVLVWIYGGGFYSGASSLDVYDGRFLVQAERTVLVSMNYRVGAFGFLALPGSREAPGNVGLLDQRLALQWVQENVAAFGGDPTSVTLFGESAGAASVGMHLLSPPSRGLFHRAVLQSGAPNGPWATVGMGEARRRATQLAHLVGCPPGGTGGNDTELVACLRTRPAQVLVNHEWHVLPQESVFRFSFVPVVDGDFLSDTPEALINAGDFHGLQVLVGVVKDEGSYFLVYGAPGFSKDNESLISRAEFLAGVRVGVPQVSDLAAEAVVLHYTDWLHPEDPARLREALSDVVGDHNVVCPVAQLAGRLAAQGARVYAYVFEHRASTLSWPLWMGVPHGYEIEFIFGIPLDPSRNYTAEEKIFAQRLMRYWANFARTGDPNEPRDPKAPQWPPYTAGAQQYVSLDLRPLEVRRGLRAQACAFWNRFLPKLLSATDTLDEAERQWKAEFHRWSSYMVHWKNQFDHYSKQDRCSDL
Chain of 3',5'-cyclic-AMP phosphodiesterase 4A (P27815 whole entry): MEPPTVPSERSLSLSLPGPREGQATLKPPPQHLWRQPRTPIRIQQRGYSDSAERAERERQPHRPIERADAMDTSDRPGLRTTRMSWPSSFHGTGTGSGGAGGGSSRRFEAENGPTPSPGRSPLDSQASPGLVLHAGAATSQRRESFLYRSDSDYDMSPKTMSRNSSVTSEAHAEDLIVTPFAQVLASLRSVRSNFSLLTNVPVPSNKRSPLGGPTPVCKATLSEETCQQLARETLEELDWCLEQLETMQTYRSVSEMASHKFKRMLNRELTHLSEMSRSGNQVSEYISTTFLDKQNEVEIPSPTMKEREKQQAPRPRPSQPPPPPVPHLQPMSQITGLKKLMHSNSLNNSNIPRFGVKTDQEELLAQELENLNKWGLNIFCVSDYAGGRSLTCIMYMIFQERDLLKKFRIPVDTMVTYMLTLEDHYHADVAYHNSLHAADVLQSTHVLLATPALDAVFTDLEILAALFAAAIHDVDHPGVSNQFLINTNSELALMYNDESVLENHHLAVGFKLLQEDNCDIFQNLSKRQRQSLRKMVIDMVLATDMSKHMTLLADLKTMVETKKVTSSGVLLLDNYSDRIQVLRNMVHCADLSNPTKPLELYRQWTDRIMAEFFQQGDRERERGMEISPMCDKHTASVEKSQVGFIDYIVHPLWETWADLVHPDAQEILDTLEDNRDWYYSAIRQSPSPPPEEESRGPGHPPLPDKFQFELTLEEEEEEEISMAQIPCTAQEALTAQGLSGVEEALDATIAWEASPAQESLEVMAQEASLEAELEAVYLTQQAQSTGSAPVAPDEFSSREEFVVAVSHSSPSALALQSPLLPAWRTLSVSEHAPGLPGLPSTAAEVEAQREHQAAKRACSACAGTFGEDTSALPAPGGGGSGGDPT
Chain of Sodium-dependent noradrenaline transporter (P23975 whole entry): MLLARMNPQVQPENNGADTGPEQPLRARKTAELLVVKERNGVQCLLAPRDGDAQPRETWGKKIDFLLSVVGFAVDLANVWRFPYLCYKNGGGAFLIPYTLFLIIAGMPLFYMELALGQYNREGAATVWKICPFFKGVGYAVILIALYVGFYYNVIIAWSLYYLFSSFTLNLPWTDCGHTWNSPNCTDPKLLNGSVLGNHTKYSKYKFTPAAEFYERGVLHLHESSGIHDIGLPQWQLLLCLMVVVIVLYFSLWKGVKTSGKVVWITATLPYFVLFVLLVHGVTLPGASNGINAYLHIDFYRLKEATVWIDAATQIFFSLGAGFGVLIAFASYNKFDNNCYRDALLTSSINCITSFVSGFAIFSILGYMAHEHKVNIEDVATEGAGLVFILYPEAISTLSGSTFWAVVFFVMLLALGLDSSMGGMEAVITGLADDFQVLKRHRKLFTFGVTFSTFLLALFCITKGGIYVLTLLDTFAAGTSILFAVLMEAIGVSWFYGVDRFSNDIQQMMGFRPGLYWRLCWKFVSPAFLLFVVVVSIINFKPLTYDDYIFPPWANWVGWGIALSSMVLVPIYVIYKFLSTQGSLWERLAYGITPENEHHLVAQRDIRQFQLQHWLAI

SMILES	AC50 (Progesterone receptor)	AC50 [1]	AC50 [2]	AC50 [3]	AC50 [4]	AC50 (Acetylcholinesterase)	AC50 [5]	AC50 [6]
CN1CCN(C(c2ccccc2)c2ccccc2)CC1 [CYCLIZINE]	> 30 µM	> 30 µM	> 30 µM	> 30 µM	> 30 µM	> 30 µM	> 30 µM	1.98 µM
NS(=O)(=O)c1cc2c(cc1Cl)NC(C1CC3C=CC1C3)NS2(=O)=O (stereo not drawn) [CYCLOTHIAZIDE]	> 30 µM	> 30 µM	> 30 µM	> 30 µM	> 30 µM	> 30 µM	> 30 µM	> 30 µM
Nc1nc(-n2cc(C(=O)O)c(=O)c3cc(F)c(N4CC(O)C4)c(Cl)c32)c(F)cc1F [DELAFLOXACIN]	> 30 µM	> 30 µM	> 30 µM	> 30 µM	> 30 µM	> 30 µM	> 30 µM	> 30 µM
C[C@@H]1C[C@H]2[C@@H]3CCC4=CC(=O)C=C[C@]4(C)[C@@]3(F)[C@@H](O)C[C@]2(C)[C@H]1C(=O)CO [DESOXIMETASONE]	0.0331 µM	> 30 µM	> 30 µM	> 30 µM	> 30 µM	> 30 µM	> 30 µM	> 30 µM
COc1ccc(-c2cc(=O)c3c(O)cc(O[C@@H]4O[C@H](CO[C@@H]5O[C@@H](C)[C@H](O)[C@@H](O)[C@H]5O)[C@@H](O)[C@H](O)[C@H]4O)cc3o2)cc1O [DIOSMIN]	> 30 µM	> 30 µM	> 30 µM	> 30 µM	> 30 µM	> 30 µM	> 30 µM	> 30 µM
O=C(Nc1ccccc1)OCC(CN1CCCCC1)OC(=O)Nc1ccccc1 (stereo not drawn) [DIPERODON]	> 30 µM	> 30 µM	> 30 µM	> 30 µM	> 30 µM	> 30 µM	> 30 µM	> 30 µM
CCOc1ccc(/C=C2\NCCc3cc(OCC)c(OCC)cc32)cc1OCC [DROTAVERINE]	> 30 µM	> 30 µM	> 30 µM	> 30 µM	> 30 µM	26.1 µM	1.68 µM	> 30 µM
CC1=NN(c2ccccc2)C(=O)C1 [EDARAVONE]	> 30 µM	> 30 µM	> 30 µM	> 30 µM	> 30 µM	> 30 µM	> 30 µM	> 30 µM
CCOC(=O)C(c1c(O)c2ccccc2oc1=O)c1c(O)c2ccccc2oc1=O [ETHYL BISCOUMACETATE]	> 30 µM	> 30 µM	> 30 µM	> 30 µM	> 30 µM	> 30 µM	> 30 µM	> 30 µM
Cc1nc(-c2ccc(OCC(C)C)c(C#N)c2)sc1C(=O)O [FEBUXOSTAT]	16.1 µM	> 30 µM	> 30 µM	> 30 µM	> 30 µM	> 30 µM	29 µM	> 30 µM
O=C1NCC2(CCN(CCc3ccccc3)CC2)O1 [FENSPIRIDE]	> 30 µM	> 30 µM	> 30 µM	> 30 µM	> 30 µM	> 30 µM	> 30 µM	> 30 µM
C[C@@H]1C[C@H]2[C@@H]3C[C@H](F)C4=CC(=O)C=C[C@]4(C)[C@@]3(F)[C@@H](O)C[C@]2(C)[C@@]1(O)C(=O)COC(=O)C(C)(C)C [FLUMETHASONE PIVALATE]	5.85 µM	> 30 µM	> 30 µM	> 30 µM	> 30 µM	> 30 µM	> 30 µM	> 30 µM
C[C@@H]1C[C@H]2[C@@H]3C[C@H](F)C4=CC(=O)C(Cl)=C[C@]4(C)[C@@]3(F)[C@@H](O)C[C@]2(C)[C@@]1(O)C(=O)CO [HALOMETASONE]	7.72 µM	> 30 µM	> 30 µM	> 30 µM	> 30 µM	> 30 µM	> 30 µM	> 30 µM
CC(C)Cc1ccc(C(C)C(=O)NO)cc1 (stereo not drawn) [IBUPROXAM]	> 30 µM	> 30 µM	> 30 µM	> 30 µM	> 30 µM	> 30 µM	24.2 µM	> 30 µM
CC/C=C\C/C=C\C/C=C\C/C=C\C/C=C\CCCC(=O)O [ICOSAPENT]	> 30 µM	> 30 µM	> 30 µM	> 30 µM	> 30 µM	> 30 µM	> 30 µM	> 30 µM
CS(=O)(=O)Nc1cc2occ(NC=O)c(=O)c2cc1Oc1ccccc1 [IGURATIMOD]	> 30 µM	> 30 µM	> 30 µM	> 30 µM	> 30 µM	> 30 µM	1.75 µM	> 30 µM
Oc1c(I)cc(I)c2cccnc12 [IODOQUINOL]	> 30 µM	> 10 µM	> 30 µM	0.874 µM	> 30 µM	> 30 µM	> 30 µM	> 30 µM
CCC(Cc1c(I)cc(I)c(N)c1I)C(=O)O (stereo not drawn) [IOPANOIC ACID]	> 30 µM	> 30 µM	> 30 µM	> 30 µM	> 30 µM	> 30 µM	12.2 µM	> 30 µM
O=C(NC1CCN(CCCCC2(C(=O)NCC(F)(F)F)c3ccccc3-c3ccccc32)CC1)c1ccccc1-c1ccc(C(F)(F)F)cc1 [LOMITAPIDE]	> 30 µM	> 30 µM	> 30 µM	2.2 µM	> 30 µM	> 30 µM	> 30 µM	0.239 µM
CCN(CC)CCNc1ccc(C)c2sc3ccccc3c(=O)c12 [LUCANTHONE]	> 30 µM	0.523 µM	17.9 µM	2.68 µM	16.3 µM	> 30 µM	> 30 µM	3.42 µM
CCOC(=O)CC(SP(=S)(OC)OC)C(=O)OCC (stereo not drawn) [MALATHION]	> 30 µM	> 30 µM	> 30 µM	> 30 µM	> 30 µM	> 30 µM	> 30 µM	> 30 µM

Source: ChEMBL document CHEMBL5291721, “A preclinical secondary pharmacology resource illuminates target-adverse drug reaction associations of marketed drugs” (Nat Commun, 2023)
